Laboratory results from patent US20260070887A1 (Shenzhen Zhongge Biological Technology Co., Ltd., priority 2022, published 2026).
pIC50: −log10 of the molar value.

Tests used:
HCC1954 cells = assay: HCC1954 cell proliferation (Cell Titer-Glo, 6 days); type: cell-based; settings: KIF18A-sensitive tumor cells
Procedure: (§1) The inhibitory effect on the KIF18A target by the compounds of the present disclosure was evaluated by testing the inhibitory effect on proliferation of HCC1954 and HCC1395 cells by the compounds of the present disclosure.
(§2) HCC1954 (ATCC, CRL-2388) and HCC1395 (ATCC, CRL-2324) cells were cultured separately in RPMI-1640 complete medium (Gibco, A1049101) containing 20% fetal bovine serum (Gibco, 10099141C), 100 U penicillin, and 100 μg/mL streptomycin (Gibco, 15140-122). The Promega kit Cell Titer-Glo (Promega: G7572) was used in this method for test. • 1. HCC1954 (KIF18A-sensitive tumor cells) and HCC1395 (KIF18A-insensitive tumor cells) were cultured separately in T75 cell culture flasks (Corning, 430641), and the medium was placed in a 37° C., 5% CO2 incubator. • 2. When the cell density reached 70% to 80% (about 2 to 3 times per week), cells are passaged with trypsin (0.25% EDTA). • 3. The cell culture flask was taken out and the cells were separated by adding 2 mL of trypsin (0.25% EDTA source) for 5 minutes. • 4. Digestion was stopped by adding 8 mL of RPM1-1640 medium and the cell suspension was transferred to a centrifuge tube and centrifuged at 1000 rpm for 5 minutes. • 5. The cells were resuspended with 5 mL of RPMI-1640 medium. Cell density was adjusted to 5×10^3/mL (HCC1954), and 2.5×10^4/mL (HCC1395), respectively. • 6. 40 μL of cell solution was added to the 384-well plate (Corning, 3765). • 7. The 384-well plate was centrifuged at 1000 rpm for 1 minute. • 8. The cells were cultured overnight in a 37° C., 5% CO2 incubator. • 9. The next day, 40 nL of compound solution was added to the 384-well plate using Echo650. The plate was then placed in a 37° C., 5% CO2 incubator for 6 days. • 10. After 6 days, 20 μL of Cell-Titer-Glo (Promega, G7572) reagent was added per well. • 11. Luminescence values were measured using the EnVision Xcite Multilabel Reader (PerkinElmer, 2105-0020).
(§3) The percentage of inhibition of cell proliferation by the test compound at each concentration was calculated by comparing with the values of the control group (0.1% DMSO). The IC50 values of the compounds were obtained by concentration-inhibition rate nonlinear regression analysis of the test compounds using GraphPad Prism 9.

HCC1395 cells = assay: HCC1395 cell proliferation (Cell Titer-Glo, 6 days); type: cell-based; settings: KIF18A-insensitive tumor cells
Procedure: as §1, §2, §3

SMILES | pIC50 (HCC1954 cells) | pIC50 (HCC1395 cells) | pIC50 (HCC1954 cells; Homo sapiens, HCC1954, 144 h) | pIC50 (HCC1395 cells; Homo sapiens, HCC1395, 144 h)
Nc1cc(NS(=O)(=O)CCO)cc(N2CCC3(CC2)CC3)c1C(=O)Nc1cccc(N2CCC(F)(F)CC2)c1 [Example 1, 2-amino-N-(3-(4,4-difluoropiperidin-1-yl)phenyl)-4-((2-hydroxyethyl)sulfonamide)-6-(6-azaspiro[2.5]octan-6-yl)benzamide] | ≥ 8.00 | < 5.30 | – | –
CNc1cc(NS(=O)(=O)CCO)cc(N2CCC3(CC2)CC3)c1C(=O)Nc1cc(C)nc(N2CCC(F)(F)CC2)n1 [Example 4, N-(2-(4,4-difluoropiperidin-1-yl)-6-methylpyrimidin-4-yl)-4-(2-hydroxyethylsulfonamide)-2-methylamino-6-(6-azaspiro[2.5]octan-6-yl)benzamide] | ≥ 8.00 | < 5.30 | – | –
O=C(Nc1cccc2c1cc1n2CCOC1)c1ccc(NS(=O)(=O)CCO)cc1N1CCC2(CC1)CC2 [Example 235, N-(3,4-dihydro-1H-[1, 4]oxazino[4,3-a]indol-9-yl)-4-(2-hydroxyethylsulfonamido)-2-(6-azaspiro[2.5]octan-6-yl)benzamide] | – | – | ≥ 8.00 | < 5.30
O=C(Nc1cccc2c1cc1n2CCOC1)c1ccc(NS(=O)(=O)CCO)cc1N1CCC(=C(F)F)CC1 [Example 319, 2-(4-difluoromethylene)piperidin-1-yl-N-(3,4-dihydro-1H-[1,4]oxazino[4,3-a]indol-9-yl)-4-((2-hydroxyethyl)sulfonamide) benzamide] | 6.30 to 8.00 | < 5.30 | – | –
